Here are results for 18 compounds from patent publication US4555519A, “Thromboxane synthetase enzyme inhibiting N-[(1H-imidazol-1-yl) and (1H-1,2,4-triazol-1-yl)alkyl]pyridinecarboxamides” (American Cyanamid Company, priority 1984, dated 1985).

Experiment [1] deals with T1, thromboxane synthetase enzyme (Rattus norvegicus, UniProt P49430).
T1 construct: endogenous in cells; host or cells: washed platelets from arterial blood of Okamoto-Aoki spontaneously hypertensive rats (Taconic Farms, Germantown, NY)
T1 sequence (P49430 1-533): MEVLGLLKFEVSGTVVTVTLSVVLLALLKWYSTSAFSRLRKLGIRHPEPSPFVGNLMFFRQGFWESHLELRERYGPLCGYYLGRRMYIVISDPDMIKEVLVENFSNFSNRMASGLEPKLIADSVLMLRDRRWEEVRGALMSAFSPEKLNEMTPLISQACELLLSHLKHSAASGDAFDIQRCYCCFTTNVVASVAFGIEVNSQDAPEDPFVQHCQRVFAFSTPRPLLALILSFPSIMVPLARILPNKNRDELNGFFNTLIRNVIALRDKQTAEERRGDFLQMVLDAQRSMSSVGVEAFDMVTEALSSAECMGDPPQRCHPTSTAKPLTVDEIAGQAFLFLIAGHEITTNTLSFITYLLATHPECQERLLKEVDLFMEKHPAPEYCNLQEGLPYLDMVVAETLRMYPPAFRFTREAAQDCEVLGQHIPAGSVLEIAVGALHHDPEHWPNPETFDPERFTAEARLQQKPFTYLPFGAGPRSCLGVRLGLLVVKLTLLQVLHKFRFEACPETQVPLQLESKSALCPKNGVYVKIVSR
Kind of experiment: inhibition of thromboxane (TXA2) formation, TXB2 determined by direct radioimmunoassay in washed rat platelets. In kind it is cell-based, Okamoto-Aoki spontaneously hypertensive rats (SHR). The following applies: Dose 10^-4 M; SHR platelets, 10 minutes at 37° C. On the procedure: The inhibition of thromboxane (TXA2) formation was studied by determining the concentration of thromboxane B2 (TXB2), the stable hydrolysis product of TXA2.
Under urethan anesthesia, […] of arterial blood was collected in one ml of 3.2% sodium citrate in a polystyrene tube from Okamoto-Aoki spontaneously hypertensive rats (SHR) (Taconic Farms, Germantown, NY) between 19 and 24 weeks in age. The blood was diluted with 3 ml cold saline and centrifuged at room temperature for 15 minutes at 460 xg. The platelet rich plasma (PRP) was separated. The platelets were isolated by centrifuging the PRP for 10 minutes at 1060 xg and were washed in 4 ml cold oxygenated Krebs phosphate buffer, pH 7.4. The chilled platelets recovered from centrifuging at 800 xg for 10 minutes were resuspended in oxygenated Krebs phosphate buffer and diluted to contain 4.5-6.0×10^4 platelets/μl. Assay samples, prepared on ice, contained 200 μl platelet suspension, 50 μl saline, and 50 μl vehicle or drug under study (OKY-1581, UK-37248-01, 1-benzylimidazole, or indomethacin). The samples were incubated for 10 minutes at 37° C. in a metabolic shaker. The reaction was terminated by immersing the tubes in an ice bath and adding 50 μl of 0.5M citric acid. The samples were centrifuged for 10 minutes in a refrigerated centrifuge and the supernatants thus obtained were decanted and stored at -20° C. The TXB2 content for each sample was determined by a direct radioimmunoassay (RIA) utilizing a TXB2 specific RIA kit purchased from New England Nuclear, Boston, Mass. and expressed as pg TXB2 formed minute^-1 sample^-1, from which the percent inhibition of TXB2 formation was calculated.

Experiment [2] is described as follows: hypotensive activity in spontaneously hypertensive rats, mean arterial blood pressure (method of Chan and Poorvin). The following applies: gavage, 100 mg/kg or less, two doses 24 hours apart; measured 28 hours after initial dose; average MABP of rats used 160±1.5 mm Hg; (no. of rats) in parentheses. In kind it is in vivo. On the procedure:
The novel compounds of the present invention also are active antihypertensive agents and were tested for hypotensive activity by the method of P. S. Chan and D. Poorvin, Clinical and Experimental Hypertension, 1 (6), 817-830 (1979). Male, 16 week old, spontaneously hypertensive rats of the Okamoto strain, from Taconic Farms, Germantown, N.Y., having an average mean arterial blood pressure of 160±1.5 mm of mercury are used in the test. One to three rats are used per test compound. A rat is dosed by gavage with a test compound, suspended in 2% pre-boiled starch at a concentration of 50 mg/ml, at a dose of 100 mg/kg of body weight or less with 0.9% sodium chloride loading at a dose of 25 ml/kg of body weight. A second identical dose of the test compound without sodium chloride loading is given 24 hours later. At 28 hours after the initial dose the mean arterial blood pressure is measured by the method of Chan and Poorvin vide supra. The procedure is repeated in a second and third rat when necessary.

For orientation: inhibition means the change of the read-out against control, counted positive when it falls. A higher inhibition goes with a response far below the control.

In experiment [1], `O=C(NCCCn1ccnc1)c1cccnc1Cl` [2-Chloro-N--[3-(1H--imidazol-1-yl)propyl]-3-pyridinecarboxamide] displayed an inhibition at 100 µM of 58%.

Consider `O=C(NCCCn1ccnc1)c1ccccn1` [N-[3-(1H-Imidazol-1-yl)propyl]-2-pyridinecarboxamide], for which the “MABP in mm Hg” value in experiment [2] came to 127 mm Hg. Moreover, in experiment [1], the inhibition at 100 µM was 59%.

Turning to `Cc1cn(CCCNC(=O)c2ccc(Cl)nc2)cn1` [6-Chloro-N-[3-(4-methyl-1H-imidazol-1-yl)propyl]-3-pyridinecarboxamide], the “MABP in mm Hg” value in experiment [2] was determined as 139 mm Hg. In experiment [1], this compound had an inhibition at 100 µM of 86%.

As for `O=C(NCCCn1ccnc1)c1ccc(Cl)nc1` [6-Chloro-N--[3-(1H--imidazol-1-yl)propyl]-3-pyridinecarboxamide], in experiment [2], the “MABP in mm Hg” value is 132 mm Hg. The compound also showed an inhibition at 100 µM in experiment [1] of 88%.

`Cc1nccn1CCCNC(=O)c1cccnc1Cl` [2-Chloro-N-[3-(2-methyl-1H-imidazol-1-yl)propyl]-3-pyridinecarboxamide]: in experiment [1], testing at 100 µM gave an inhibition of 38%.

In experiment [1], `O=C(NCCCCn1ccnc1)c1ccc(Cl)nc1` [6-Chloro-N--[4-(1H--imidazol-1-yl)butyl]-3-pyridinecarboxamide] yielded an inhibition at 100 µM of 94%.

In the case of `O=C(NCCCCn1ccnc1)c1ccccn1.O=C(O)/C=C/C(=O)O` [N-[4-(1H-Imidazol-1-yl)butyl]-2-pyridinecarboxamide, fumarate], in experiment [2], the “MABP in mm Hg” value was determined as 116 mm Hg. For the same compound, testing at 100 µM in experiment [1] gave an inhibition of 82%.

As for `O=C(NCCCCn1ccnc1)c1cccnc1Cl` [2-Chloro-N--[4-(1H--imidazol-1-yl)butyl]-3-pyridinecarboxamide], 100 µM produced 90% inhibition in experiment [1].

Regarding `CC(CNC(=O)c1ccc(Cl)nc1)Cn1ccnc1` (stereo not shown) [6-Chloro-N-[3-(1H-imidazol-1-yl)-2-methylpropyl]-3-pyridinecarboxamide], the “MABP in mm Hg” value in experiment [2] is 129 mm Hg. Moreover, in experiment [1], 100 µM produced 98% inhibition.

In experiment [1], `Cc1cn(CCCNC(=O)c2cccnc2Cl)cn1` [2-Chloro-N--[3-(4-methyl-1H--imidazol-1-yl)propyl]-3-pyridinecarboxamide] had an inhibition at 100 µM of 50%.

In the case of `O=C(NCCCn1ccnc1-c1ccccc1)c1ccc(Cl)nc1` [6-Chloro-N-[3-(2-phenyl-1H-imidazol-1-yl)propyl]-3-pyridinecarboxamide], the inhibition at 100 µM in experiment [1] worked out at 56%.

With `CC(CCNC(=O)c1ccc(Cl)nc1)n1ccnc1` (stereo not shown) [6-Chloro-N-[3-(1H-imidazol-1-yl)butyl]-3-pyridinecarboxamide], in experiment [2], the “MABP in mm Hg” value is 111 mm Hg. For the same compound, the inhibition at 100 µM in experiment [1] amounted to 98%.

Take `Cc1cn(CCCNC(=O)c2cccnc2)cn1` [N--[3-(4-Methyl-1H--imidazol-1-yl)propyl]-3-pyridinecarboxamide]: in experiment [2], the “MABP in mm Hg” value is given as 123 mm Hg. This compound yielded an inhibition at 100 µM in experiment [1] of 50%.

In the case of `O=C(NCCCn1cncn1)c1ccc(Cl)nc1` [6-Chloro-N-[3-(1H-1,2,4-triazol-1-yl)propyl]-3-pyridinecarboxamide], in experiment [2], the “MABP in mm Hg” value is listed as 140 mm Hg. In experiment [1], this compound yielded an inhibition at 100 µM of 67%.

`Cc1nccn1CCCNC(=O)c1ccc(Cl)nc1` [6-Chloro-N-[3-(2-methyl-1H-imidazol-1-yl)propyl]-3-pyridinecarboxamide] yielded an inhibition at 100 µM in experiment [1] of 44%.

With `Cc1cn(CCCNC(=O)c2ccccn2)cn1` [N--[3-(4-Methyl-1H--imidazol-1-yl)propyl]-2-pyridinecarboxamide], in experiment [2], the “MABP in mm Hg” value is on record as 140 mm Hg. In addition, 100 µM produced 84% inhibition in experiment [1].

For `O=C(NCCCn1ccnc1)c1cccnc1` [N--[3-(1H--Imidazol-1-yl)propyl]-3-pyridinecarboxamide], the “MABP in mm Hg” value in experiment [2] stood at 138 mm Hg. Besides, in experiment [1], the inhibition at 100 µM stood at 83%.

For `O=C(NCCCn1ccnc1-c1ccccc1)c1ccccn1` [N-[3-(2-Phenyl-1H-imidazol-1-yl)propyl]-2-pyridinecarboxamide], the inhibition at 100 µM in experiment [1] is 30%.
